Legend:
[1] = biological target: MCL1/Bim (Homo sapiens (Human), UniProt Q07820); assay: MCL1/Bim Binding AlphaLISA Assay; settings: recombinant human 6xHis-MCL1 (171-327), biotinylated Bim peptide (51-76)
Method in brief: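 AlphaLISA with 0.0625 nM human 6×His-MCL1 (171-327) and 0.0625 nM biotinylated Bim (51-76) peptide in 20 mM Hepes pH 7.5, 150 mM NaCl, 0.002% Brij 35, 1 mM DTT, 0.01% BSA. Compound preincubated with MCL1 1 h, Bim added 2 h, then acceptor and donor beads 1 h each; % inhibition versus DMSO and no-protein/peptide controls.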

[2] = tested on: SKBR3 cells; assay: SKBR3 Cell Viability Assay; type: cell-based; settings: Homo sapiens, SK-BR-3, 72 hours, CellTiter Glo, read-out: MCL1 CV SKBR3 EC50
Method in brief: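 Viability was measured by CellTiter-Glo luminescence after 72 h at 37° C, 5% CO2. Each well held 6,000 SKBR3 cells in McCoy's 5A/10% FBS dispensed onto serially diluted compound. Percent inhibition is relative to DMSO and 10 μM puromycin controls.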

MCL1/Bim, sequence (Q07820 171-327): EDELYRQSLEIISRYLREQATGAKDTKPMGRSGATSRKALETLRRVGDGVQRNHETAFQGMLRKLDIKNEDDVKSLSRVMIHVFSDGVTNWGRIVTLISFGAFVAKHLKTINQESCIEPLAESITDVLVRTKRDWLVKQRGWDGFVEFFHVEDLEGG

| Structure (SMILES) | IC50 [1] [nM] | EC50 [2] [nM] |
| --- | --- | --- |
| CO[C@H]1/C=C/C[C@H](C)[C@@H](C)[S@@](=O)(NC(=O)c2cnn(C3COC3)c2)=NC(=O)c2ccc3c(n2)N(C[C@@H]2CC[C@H]21)C[C@@]1(CCCc2cc(Cl)ccc21)CO3 [Example 201] | 0.1 | 85 |
| CO[C@H]1/C=C/C[C@H](C)[C@@H](C)[S@@](=O)(NC(=O)COC2CCOCC2)=NC(=O)c2ccc3c(n2)N(C[C@@H]2CC[C@H]21)C[C@@]1(CCCc2cc(Cl)ccc21)CO3 [Example 203] | 0.12 | 156 |
| CO[C@H]1/C=C/C[C@H](C)[C@@H](C)[S@@](=O)(NC(=O)c2cc3n(c2)CCOC3)=NC(=O)c2ccc3c(n2)N(C[C@@H]2CC[C@H]21)C[C@]1(CO3)C[C@@H]2C[C@@H]2c2cc(Cl)ccc21 [Example 206] | 0.23 | 142 |
| CO[C@H]1/C=C/C[C@H](C)C[S@@](=O)(NC(=O)c2cc(C(=O)N3CCOCC3)n(C)c2)=NC(=O)c2ccc3c(c2)N(C[C@@H]2CC[C@H]21)C[C@@]1(CCCc2cc(Cl)ccc21)CO3 [Example 207] | 0.08 | 87.7 |
| CO[C@H]1/C=C/C[C@H](C)C[S@@](=O)(NC(=O)c2cn(C)c(=O)n2C)=NC(=O)c2ccc3c(c2)N(C[C@@H]2CC[C@H]21)C[C@@]1(CCCc2cc(Cl)ccc21)CO3 [Example 208] | 0.13 | 140 |

Compounds with a lower IC50 [1], results first:

| IC50 [1] [nM] | EC50 [2] [nM] | Structure (SMILES) |
| --- | --- | --- |
| 0.06 | 81.3 | CO[C@H]1/C=C/C[C@H](C)[C@@H](C)[S@@](=O)(NC(=O)c2cnn(C)c2)=NC(=O)c2ccc3c(n2)N(C[C@@H]2CC[C@H]21)C[C@]1(CO3)C[C@@H]2C[C@@H]2c2cc(Cl)ccc21 [Example 205] |
| 0.04 | 127 | CO[C@H]1/C=C/C[C@H](C)C[S@@](=O)(NC(=O)c2cn(C)nc2C#CC(C)(C)O)=NC(=O)c2ccc3c(c2)N(C[C@@H]2CC[C@H]21)C[C@@]1(CCCc2cc(Cl)ccc21)CO3 [Example 209] |
| 0.05 | 109 | COCC#Cc1nn(C)cc1C(=O)N[S@@]1(=O)=NC(=O)c2ccc3c(c2)N(C[C@@H]2CC[C@H]2[C@@H](OC)/C=C/C[C@H](C)C1)C[C@@]1(CCCc2cc(Cl)ccc21)CO3 [Example 210] |
